From patent US12077503B2, “Substituted cyclic amides and their use as herbicides” (FMC CORPORATION, priority 2015, dated 2024)

Tests used:
Assay type in all cases: in vivo
[1] = test system: barnyardgrass (Echinochloa crus-galli); experiment: Test G Pre-Emergence Protocol; conditions: Echinochloa crus-galli, pre-emergence, 312 h, evaluated after 13 days; for pest or weed control at 15.625 g/ha: 15.625 g ai/ha; for pest or weed control at 15.625 g/ha / pest or weed control at 250 g/ha: read-out: Barnyardgrass damage rating (100=total damage to plant; 0=no damage to plant); for pest or weed control at 62.5 g/ha: 62.5 g ai/ha, 100=total damage to plant, 0=no damage to plant, read-out: Barnyardgrass damage rating; for pest or weed control at 250 g/ha: 250 g ai/ha
How it was run: (§1)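 Pre-emergence spray, 15.625/62.5/250 g/ha, vehicle acetone:water 50:50 + 0.5% Tween 20, applied 1 d after sowing. Glasshouse 24/16° C, 14 h light, 65% RH, watered twice daily. Visual damage rating at 13 d, 0–100 scale.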

[2] = test system: velvetleaf (Abutilon theophrasti); experiment: Test G Pre-Emergence Protocol; conditions: Abutilon theophrasti, pre-emergence, 312 h, evaluated after 13 days; for pest or weed control at 15.625 g/ha: 15.625 g ai/ha; for pest or weed control at 15.625 g/ha / pest or weed control at 250 g/ha: read-out: Velvetleaf damage rating (100=total damage to plant; 0=no damage to plant); for pest or weed control at 62.5 g/ha: 62.5 g ai/ha, 100=total damage to plant, 0=no damage to plant, read-out: Velvetleaf damage rating; for pest or weed control at 250 g/ha: 250 g ai/ha
How it was run: as §1

[3] = test system: giant foxtail (Setaria faberi); experiment: Test G Pre-Emergence Protocol; conditions: Setaria faberi, pre-emergence, 312 h, evaluated after 13 days; for pest or weed control at 15.625 g/ha: 15.625 g ai/ha; for pest or weed control at 15.625 g/ha / pest or weed control at 250 g/ha: read-out: Foxtail, Giant damage rating (100=total damage to plant; 0=no damage to plant); for pest or weed control at 62.5 g/ha: 62.5 g ai/ha, 100=total damage to plant, 0=no damage to plant, read-out: Foxtail, Giant damage rating; for pest or weed control at 250 g/ha: 250 g ai/ha
How it was run: as §1

[4] = test system: ivy-leaved morning glory (Ipomoea hederacea); experiment: Test G Pre-Emergence Protocol; conditions: Ipomoea, pre-emergence, 312 h, evaluated after 13 days; for pest or weed control at 15.625 g/ha: 15.625 g ai/ha; for pest or weed control at 15.625 g/ha / pest or weed control at 250 g/ha: read-out: Morningglory, Ivy-leaved damage rating (100=total damage to plant; 0=no damage to plant); for pest or weed control at 62.5 g/ha: 62.5 g ai/ha, 100=total damage to plant, 0=no damage to plant, read-out: Morningglory, Ivy-leaved damage rating; for pest or weed control at 250 g/ha: 250 g ai/ha
How it was run: as §1

[5] = test system: redroot pigweed (Amaranthus retroflexus); experiment: Test G Pre-Emergence Protocol; conditions: Amaranthus retroflexus, pre-emergence, 312 h, evaluated after 13 days; for pest or weed control at 15.625 g/ha: 15.625 g ai/ha; for pest or weed control at 15.625 g/ha / pest or weed control at 250 g/ha: read-out: Pigweed, Redroot damage rating (100=total damage to plant; 0=no damage to plant); for pest or weed control at 62.5 g/ha: 62.5 g ai/ha, 100=total damage to plant, 0=no damage to plant, read-out: Pigweed, Redroot damage rating; for pest or weed control at 250 g/ha: 250 g ai/ha
How it was run: as §1

corn (Zea mays) [6] = experiment: Test G Pre-Emergence Protocol; conditions: Zea mays, pre-emergence, 312 h, evaluated after 13 days; for plant injury at 15.625 g/ha: 15.625 g ai/ha; for plant injury at 15.625 g/ha / plant injury at 250 g/ha: read-out: Corn damage rating (100=total damage to plant; 0=no damage to plant); for plant injury at 62.5 g/ha: 62.5 g ai/ha, 100=total damage to plant, 0=no damage to plant, read-out: Corn damage rating; for plant injury at 250 g/ha: 250 g ai/ha
How it was run: as §1

[7] = test system: barnyardgrass (Echinochloa crus-galli); experiment: Test G Post-Emergence Protocol; conditions: Echinochloa crus-galli, post-emergence, 312 h, read-out: Barnyardgrass damage rating; for pest or weed control at 15.625 g/ha: 15.625 g ai/ha, evaluated after 13 days (100=total damage to plant; 0=no damage to plant); for pest or weed control at 62.5 g/ha: 62.5 g ai/ha; for pest or weed control at 62.5 g/ha / pest or weed control at 250 g/ha: evaluated after 13 days, 100=total damage to plant, 0=no damage to plant; for pest or weed control at 250 g/ha: 250 g ai/ha
How it was run: (§2)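 Seedlings grown 8 days in soil in a glasshouse (24/16 °C day/night, 14 h light, 65% humidity) were sprayed post-emergence with compound in acetone/water 50:50 plus 0.5% Tween 20 at 15.625, 62.5 or 250 g/ha. Damage was scored after 13 days on a 0–100 scale (100 = total damage).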

[8] = test system: velvetleaf (Abutilon theophrasti); experiment: Test G Post-Emergence Protocol; conditions: Abutilon theophrasti, post-emergence, 312 h, read-out: Velvetleaf damage rating; for pest or weed control at 15.625 g/ha: 15.625 g ai/ha, evaluated after 13 days (100=total damage to plant; 0=no damage to plant); for pest or weed control at 62.5 g/ha: 62.5 g ai/ha; for pest or weed control at 62.5 g/ha / pest or weed control at 250 g/ha: evaluated after 13 days, 100=total damage to plant, 0=no damage to plant; for pest or weed control at 250 g/ha: 250 g ai/ha
How it was run: as §2

[9] = test system: giant foxtail (Setaria faberi); experiment: Test G Post-Emergence Protocol; conditions: Setaria faberi, post-emergence, 312 h, read-out: Foxtail, Giant damage rating; for pest or weed control at 15.625 g/ha: 15.625 g ai/ha, evaluated after 13 days (100=total damage to plant; 0=no damage to plant); for pest or weed control at 62.5 g/ha: 62.5 g ai/ha; for pest or weed control at 62.5 g/ha / pest or weed control at 250 g/ha: evaluated after 13 days, 100=total damage to plant, 0=no damage to plant; for pest or weed control at 250 g/ha: 250 g ai/ha
How it was run: as §2

[10] = test system: ivy-leaved morning glory (Ipomoea hederacea); experiment: Test G Post-Emergence Protocol; conditions: Ipomoea, post-emergence, 312 h, read-out: Morningglory, Ivy-leaved damage rating; for pest or weed control at 15.625 g/ha: 15.625 g ai/ha, evaluated after 13 days (100=total damage to plant; 0=no damage to plant); for pest or weed control at 62.5 g/ha: 62.5 g ai/ha; for pest or weed control at 62.5 g/ha / pest or weed control at 250 g/ha: evaluated after 13 days, 100=total damage to plant, 0=no damage to plant; for pest or weed control at 250 g/ha: 250 g ai/ha
How it was run: as §2

[11] = test system: redroot pigweed (Amaranthus retroflexus); experiment: Test G Post-Emergence Protocol; conditions: Amaranthus retroflexus, post-emergence, 312 h, read-out: Pigweed, Redroot damage rating; for pest or weed control at 15.625 g/ha: 15.625 g ai/ha, evaluated after 13 days (100=total damage to plant; 0=no damage to plant); for pest or weed control at 62.5 g/ha: 62.5 g ai/ha; for pest or weed control at 62.5 g/ha / pest or weed control at 250 g/ha: evaluated after 13 days, 100=total damage to plant, 0=no damage to plant; for pest or weed control at 250 g/ha: 250 g ai/ha
How it was run: as §2

corn (Zea mays) [12] = experiment: Test G Post-Emergence Protocol; conditions: Zea mays, post-emergence, 312 h, read-out: Corn damage rating; for plant injury at 15.625 g/ha: 15.625 g ai/ha, evaluated after 13 days (100=total damage to plant; 0=no damage to plant); for plant injury at 62.5 g/ha: 62.5 g ai/ha; for plant injury at 62.5 g/ha / plant injury at 250 g/ha: evaluated after 13 days, 100=total damage to plant, 0=no damage to plant; for plant injury at 250 g/ha: 250 g ai/ha
How it was run: as §2

| Structure (SMILES) | pest or weed control at 15.625 g/ha [1] | pest or weed control at 62.5 g/ha [1] | pest or weed control at 250 g/ha [1] | pest or weed control at 15.625 g/ha [2] | pest or weed control at 62.5 g/ha [2] | pest or weed control at 250 g/ha [2] | pest or weed control at 15.625 g/ha [3] | pest or weed control at 62.5 g/ha [3] | pest or weed control at 250 g/ha [3] | pest or weed control at 15.625 g/ha [4] | pest or weed control at 62.5 g/ha [4] | pest or weed control at 250 g/ha [4] | pest or weed control at 15.625 g/ha [5] | pest or weed control at 62.5 g/ha [5] | pest or weed control at 250 g/ha [5] | plant injury at 15.625 g/ha (corn (Zea mays) [6]) | plant injury at 62.5 g/ha (corn (Zea mays) [6]) | plant injury at 250 g/ha (corn (Zea mays) [6]) | pest or weed control at 15.625 g/ha [7] | pest or weed control at 62.5 g/ha [7] | other results |
| --- | --- | --- | --- | --- | --- | --- | --- | --- | --- | --- | --- | --- | --- | --- | --- | --- | --- | --- | --- | --- | --- |
| CN1C[C@H](c2ccc(C(F)(F)F)cc2)[C@@H](C(=O)Nc2cnccc2[N+](=O)[O-])C1=O (racemic) [Compound 1729] | 0% | 0% | 0% | 0% | 0% | 0% | 0% | 0% | 0% | 0% | 0% | 0% | 0% | 0% | 0% | 0% | 0% | 0% | 0% | 0% | pest or weed control at 250 g/ha [7]: 0%; pest or weed control at 15.625 g/ha [8]: 0%; pest or weed control at 62.5 g/ha [8]: 0%; pest or weed control at 250 g/ha [8]: 0%; pest or weed control at 15.625 g/ha [9]: 0%; pest or weed control at 62.5 g/ha [9]: 0%; pest or weed control at 250 g/ha [9]: 0%; pest or weed control at 15.625 g/ha [10]: 0%; pest or weed control at 62.5 g/ha [10]: 0%; pest or weed control at 250 g/ha [10]: 0%; pest or weed control at 15.625 g/ha [11]: 0%; pest or weed control at 62.5 g/ha [11]: 0%; pest or weed control at 250 g/ha [11]: 0%; plant injury at 15.625 g/ha (corn (Zea mays) [12]): 0%; plant injury at 62.5 g/ha (corn (Zea mays) [12]): 0%; plant injury at 250 g/ha (corn (Zea mays) [12]): 0% |
| CN1CC(c2ccc(F)c(OCC(F)(F)F)c2)C(C(=O)Nc2cccc(F)c2F)C1=O (stereo not drawn) [Compound 1718] | 60% | 70% | 90% | 0% | 0% | 50% | 60% | 80% | 90% | 0% | 0% | 10% | 0% | 0% | 60% | 0% | 50% | 80% | 50% | 70% | pest or weed control at 250 g/ha [7]: 80%; pest or weed control at 15.625 g/ha [8]: 20%; pest or weed control at 62.5 g/ha [8]: 40%; pest or weed control at 250 g/ha [8]: 60%; pest or weed control at 15.625 g/ha [9]: 70%; pest or weed control at 62.5 g/ha [9]: 80%; pest or weed control at 250 g/ha [9]: 80%; pest or weed control at 15.625 g/ha [10]: 10%; pest or weed control at 62.5 g/ha [10]: 60%; pest or weed control at 250 g/ha [10]: 70%; pest or weed control at 15.625 g/ha [11]: 30%; pest or weed control at 62.5 g/ha [11]: 40%; pest or weed control at 250 g/ha [11]: 70%; plant injury at 15.625 g/ha (corn (Zea mays) [12]): 30%; plant injury at 62.5 g/ha (corn (Zea mays) [12]): 50%; plant injury at 250 g/ha (corn (Zea mays) [12]): 80% |
